According to patent US10765687B2, “Methods and compounds to inhibit enveloped virus release” (Northwestern University, priority 2012, dated 2020):
“Also recorded” adds a separate entry of the source. One block for each compound: values may come before it. No end group written: not given here.

Columns and labels:
WWP2 (SEQ ID NO:24) [1] = molecular target: T1, WWP2 (SEQ ID NO:24) (Homo sapiens, UniProt O00308); experiment: Fluorescence polarization assay (FITC/TAMRA) for disruption of WWP2 binding to PY-motif peptide probe; details: SEQ ID NO: 17 probe with FITC or TAMRA label; read-out: [compound] to achieve 50% change in fluorescence polarization in FP Assay
T1 construct: poly-His (pET28b leader with thrombin site) (N, cleaved yes); made in house; host or cells: E. coli BL21 DE3
T1 sequence (O00308 with tags, fused parts or gaps): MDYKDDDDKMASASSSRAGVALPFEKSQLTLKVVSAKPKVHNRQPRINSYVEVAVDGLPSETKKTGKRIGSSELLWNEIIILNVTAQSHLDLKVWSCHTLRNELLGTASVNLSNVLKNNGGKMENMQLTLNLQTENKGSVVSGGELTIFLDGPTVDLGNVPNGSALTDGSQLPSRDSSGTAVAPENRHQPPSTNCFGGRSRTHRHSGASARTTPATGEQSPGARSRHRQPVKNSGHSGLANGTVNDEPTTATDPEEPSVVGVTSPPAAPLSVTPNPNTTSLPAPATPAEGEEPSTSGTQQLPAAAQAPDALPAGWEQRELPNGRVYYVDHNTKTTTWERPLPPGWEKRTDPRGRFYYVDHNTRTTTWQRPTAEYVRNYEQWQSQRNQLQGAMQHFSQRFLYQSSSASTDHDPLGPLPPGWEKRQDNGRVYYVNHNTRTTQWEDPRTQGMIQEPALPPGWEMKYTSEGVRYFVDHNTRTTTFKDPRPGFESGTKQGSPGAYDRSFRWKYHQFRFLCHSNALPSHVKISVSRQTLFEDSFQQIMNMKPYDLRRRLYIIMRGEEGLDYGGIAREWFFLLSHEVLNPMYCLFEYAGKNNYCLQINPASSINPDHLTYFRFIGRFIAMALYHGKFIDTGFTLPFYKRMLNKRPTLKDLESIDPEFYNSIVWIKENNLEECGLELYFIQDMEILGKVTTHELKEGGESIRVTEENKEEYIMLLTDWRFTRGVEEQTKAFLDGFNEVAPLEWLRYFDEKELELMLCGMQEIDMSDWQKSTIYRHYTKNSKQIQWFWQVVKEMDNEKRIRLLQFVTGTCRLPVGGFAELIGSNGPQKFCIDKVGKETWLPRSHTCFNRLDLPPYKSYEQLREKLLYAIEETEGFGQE
Description: (§1) Screens for compounds that disrupt the binding of the FTIC-peptide and WWP2 (SEQ ID NO:24) were carried out in 384-well plate format with 25 ml assay volume at ˜0.5 mM WWP2. Non-binding solid black plates (Corning Costar 3575) were used. The assay buffer contained 20 mM Tris and 150 mM NaCl at pH 7.9. FP was measured on either a Biotek Synergy4 or an Analyst GT plate reader. Data analysis was performed using the in-house software excelHTS. […] Each assay plate included 16 negative control wells containing protein-probe mix but no compounds and 16 wells containing only probe.

[2] = molecular target: T2, WWP2 polypeptide (SEQ ID NO:24) (Homo sapiens, UniProt O00308); experiment: Fluorescence polarization WWP2 protein dose-response, binding of PY-motif peptide probes
T2 construct: poly-His (pET28b leader with thrombin site) (N, cleaved yes); made in house; host or cells: E. coli BL21 DE3
T2 sequence (O00308 with tags, fused parts or gaps): as above
Description: as §1, with “Screens for compounds that disrupt the binding of the FTIC-peptide and WWP2 (SEQ ID NO:24) were carried out in 384-well plate format with 25 ml assay volume at ˜0.5 mM WWP2.” left out

WWP2 (SEQ ID NO:24) [3] = molecular target: T1, WWP2 (SEQ ID NO:24); experiment: Epic label-free binding assay of compounds to immobilized WWP2
Description: Another preferred embodiment of an in vitro screening method is depicted in FIG. 3. In this method, the ability of the candidate compound 204 to directly interact with the cellular ESCRT-linked component protein (for example, Nedd4 family of polypeptides [for example, WWP1 (SEQ ID NO:29), WWP2 (SEQ ID NO:24), Nedd4 L, among others]) or TGS101 is evaluated. According to this embodiment, a cellular ESCRT component protein 202 is preferably immobilized to a substrate 201 (for example, a microtiter plate) via a linking group 203 (for example, an amine group). The substrate preferably includes an optional reference area that provides a control to prevent non-specific interactions with non-mobilized ESCRT complex protein 202 with substrate 201. The substrate 201 is washed and irradiated with broadband light so that a baseline refractive index is measured. Test compound 204 is added to the system to permit its binding to the immobilized ESCRT component protein 202 to form a resultant associative complex 205. The substrate 201 is irradiated with broadband light again to detect a change in the wavelength of the reflected light.
High sensitivity biochemical plates (PerkinElmer Cat. No. 6057468) are used in WWP2 (SEQ ID NO:24) binding assay to maximize protein immobilization. […] Because compound stocks are in DMSO that affects the Epic label-free readout, the compound plates were prepared by Echo550 acoustic dispenser to keep DMSO content balanced for all wells. […]
The binding of compounds to WWP2 (SEQ ID NO:24) was measured on the EnSpire label-free plate reader. After 25 minutes of thermal equilibration, a baseline reading was taken on the label-free plates with protein immobilized in assay buffer. […] The final reading was taken after 25 min of thermal equilibration and over a period of 60 minutes. The label-free responses were measured as shifts in reflected wavelength and were expressed in picometers (pm). Results were analyzed using the EnSpire label-free user interface software. […]

TSG101 (SEQ ID NO:33) = molecular target: T3, TSG101 (SEQ ID NO:33) (Homo sapiens, UniProt Q99816); experiment: Fluorescence-based thermal shift (FTS) assay; type: binding; details: FIG. 7
T3 construct: polyhistidine leader with thrombin cleavage site (pET28b) (N); TEV cleavage site (N); made in house
T3 sequence (Q99816 with tags, fused parts or gaps): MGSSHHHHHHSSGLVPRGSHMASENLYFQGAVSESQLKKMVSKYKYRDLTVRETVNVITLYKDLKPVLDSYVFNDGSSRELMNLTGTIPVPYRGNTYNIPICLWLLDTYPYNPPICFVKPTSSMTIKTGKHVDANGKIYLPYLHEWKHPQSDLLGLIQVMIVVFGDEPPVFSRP
Description: The fluorescence-based thermal shift assay is based on the observation that a protein unfolds upon heating, exposing the hydrophobic residues within its tertiary structure. The unfolding temperature (Tm) is determined by the protein's primary sequence and solution environment. The FTS assay uses a fluorescent dye sensitive to a hydrophobic environment to probe protein stability and its modulation by small molecule ligands. The dye has a low fluorescence quantum yield when in a polar environment. […] J Biomol Screen 6: 429-440; Lo M C, Aulabaugh A, Jin G, Cowling R, Bard J, et al. (2004) Evaluation of fluorescence-based thermal shift assays for hit identification in drug discovery. […]
The NU-HTA has developed a robotic pipeline for small molecule protein ligand screening by FTS. See Luan C H, Light S H, Dunne S F, Anderson W F. Ligand screening using Fluorescence Thermal Shift Analysis (FTS). […] The pipeline uses an Echo550 acoustic transfer robot (Labcyte, CA) for compound addition and the Mosquito robot (TTP LabTechnologies, UK) for protein dispensing followed by thermal scanning coupled with fluorescence detection which is performed on a real-time PCR machine CFX384 (Bio-Rad Laboratories). […]

HSV-1 (strain F) = experiment: HSV-1 virus production and release from infected Vero cells, plaque assay; type: cell-based; details: FIG. 8A
Description: Vero cells were inoculated with HSV-1 (strain F) at a multiplicity of infection (MOI) of 0.01 for 2 hr. The cells were washed and treated with 0.10 M sodium citrate buffer to inactivate viruses on the outside of the cells (for example, in the culture medium). The culture medium was replaced with fresh culture medium containing no inhibitor compound or different concentrations (40 μM or 80 μM) of inhibitor compounds F15 or N16 (candidate PTAP motif inhibitors against the TSG101 peptide [SEQ ID NO:33]) for 48 hr. The supernatants (culture medium) and total cells (culture medium and cells) were collected for determining infectious virus titer. The virus titers were determined by standard plaque assay on Vero cells.
Vero cells were grown in DMEM supplemented with 10% FBS. Viral infections were performed in DMEM supplemented with 1% heat-inactivated FBS. Vero cells were inoculated HSV-1 (strain F) at indicated concentrations, after 2 h, the cells were washed and treated with 0.1 M sodium citrate buffer (pH 3.0) for 1 min to inactivate unpenetrated viruses, washed again and incubated with fresh medium containing 1% heat-inactivated FBS. […] Then virus titers were determined by standard plaque assay on Vero cells.

Vero cells = experiment: MTS cytotoxicity assay; details: 0 μM to 100 μM, uninfected cells, absorbance at 490 nm, FIG. 8B; listed as N16
Description: The cytotoxicity of the compounds was determined by a commercially available assay (Celltiter 96® AQueous One Solution cell proliferation assay reagent; Promega, Madison, Wis.), as described previously (Akkarawongsa et al., 2006). The CellTiter 96® AQueous One Solution Cell Proliferation Assay is a colorimetric method for determining the number of viable cells in proliferation, cytotoxicity or chemosensitivity assays. The CellTiter 96® AQueous One Solution Reagent contains a tetrazolium compound [3-(4,5-dimethylthiazol-2-yl)-5-(3-carboxymethoxyphenyl)-2-(4-sulfophenyl)-2H-tetrazolium, inner salt; MTS] and an electron coupling reagent (phenazine ethosulfate; PES). PES has enhanced chemical stability, which allows it to be combined with MTS to form a stable solution. […] Assays are performed by adding a small amount of the CellTiter 96® AQueous One Solution Reagent directly to culture wells, incubating for 1-4 hours and then recording absorbance at 490 nm with a 96-well plate reader. The quantity of formazan product as measured by the amount of 490 nm absorbance is directly proportional to the number of living cells in culture.
Briefly, Vero cells (1.5×10^4 cells/well) were seeded in a 96-well plate, and the plate was incubated for 24 h at 37° C. […] The plate was then incubated for 2 h at 37° C., and the absorbance at 490 nm was determined with a 96-well plate reader (Perkin Elmer).

Compound: Cc1nn(-c2ccc(S(=O)(=O)[O-])cc2)c([O-])c1N=Nc1ccc(-c2ccc(N=Nc3ccc4c(S(=O)(=O)[O-])cc(S(=O)(=O)[O-])c(N)c4c3[O-])c([O-])c2)cc1[O-].[Cu+2].[Cu+2].[H+].[H+].[H+] [NSC306711]
IC50 (WWP2 (SEQ ID NO:24) [1]): 1 µM

IC50 (WWP2 (SEQ ID NO:24) [1]): 20 to 30 µM
Compound: CCC(/C=C1\Sc2cc(Br)ccc2N1CC)=C\c1sc2cc(Br)ccc2[n+]1CC [CD23-G07]

IC50 (WWP2 (SEQ ID NO:24) [1]): 3 µM
Compound: O=C1c2ccccc2C(=O)c2c(NC3CCCCC3)ccc(Nc3ccc(S(=O)(=O)O)cc3)c21 [NSC128437]

Compound: ATASAPPPYVGSGGGATASAPPPYVGSGGGATASAPPPYVGSGGGRRR [SEQ ID NO:17]
Kd [2]: 0.2 µM

Compound: CC1=C(O)C(=O)C=C2C1=CC=C1[C@@]2(C)CC[C@@]2(C)[C@@H]3C[C@](C)(C(=O)O)CC[C@]3(C)CC[C@]12C [Celastrol, 3-Hydroxy-9β,13α-dimethyl-2-oxo-24,25,26-trinoroleana-1(10),3,5,7-tetraen-29-oic acid]
Kd (WWP2 (SEQ ID NO:24) [3]): 18.5 µM

Compound: COc1ccc2[nH]c([S+]([O-])Cc3ncc(C)c(OC)c3C)nc2n1 (racemic) [Tenatoprazole, (RS)-3-Methoxy-8-[(4-methoxy-3,5-dimethyl-pyridin-2-yl)methylsulfinyl]-2,7,9-triazabicyclo[4.3.0]nona-2,4,8,10-tetraene]
Thermal shift in protein unfolding (Tm) of TSG101 (TSG101 (SEQ ID NO:33)): lower Tm
HSV-1 virion release from cells (in words) (HSV-1 (strain F)): inhibit HSV-1 virion release from cells
Cytotoxic effects on Vero cells (Vero cells): Neither inhibitor compound was cytotoxic; also recorded: not toxic; also recorded: did not display cytotoxic effects

Compound: COc1ccc2[n-]c([S@@+]([O-])Cc3ncc(C)c(OC)c3C)nc2c1.[K+] [Esomeprazole potassium, 5-methoxy-2-[(R)-[(4-methoxy-3,5-dimethylpyridin-2-yl)methane]sulfinyl]-1H-1,3-benzodiazole, potassium]
HSV-1 virion release from cells (in words) (HSV-1 (strain F)): inhibit HSV-1 virion release from cells
